Laboratory results published in ChEMBL document CHEMBL1201862, “PubChem BioAssay data set” (2004).
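Exposure lasted 48 hours, with cells grown in 96-well plates and compounds tested at five concentrations. At the GI50, growth is halved.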 The source made the active and inactive calls. No stated cut-off is given here; in the data, active = GI50 up to about 1.1 µM and inactive = higher.

Key:
Test in all cases: inhibition of tumour cell growth, NCI panel, 48 h
[1] = system: DU-145
[2] = system: UO-31
[3] = system: SK-MEL-28
[4] = system: A549
[5] = system: T47D
[6] = system: MOLT-4
[7] = system: SK-MEL-5
[8] = system: SF-268
[9] = system: KM12
[10] = system: SR
[11] = system: HT-29
[12] = system: SN12C
[13] = system: CAKI-1
[14] = system: BT-549
[15] = system: HOP-92
[16] = system: 786-0
[17] = system: CCRF-CEM
[18] = system: SNB-19
[19] = system: SW-620

SMILES | GI50 [1] | GI50 [2] | GI50 [3] | GI50 [4] | GI50 [5] | GI50 [6] | GI50 [7] | GI50 [8] | GI50 [9] | GI50 [10] | GI50 [11] | GI50 [12] | GI50 [13] | GI50 [14] | GI50 [15] | GI50 [16] | GI50 [17] | GI50 [18] | GI50 [19]
NC(CCC(=O)c1ccccn1)C(=O)O (centres undefined) | > 100 µM (inactive) | > 100 µM (inactive) | > 100 µM (inactive) | > 100 µM (inactive) | > 100 µM (inactive) | > 100 µM (inactive) | > 100 µM (inactive) | > 100 µM (inactive) | > 100 µM (inactive) | > 100 µM (inactive) | > 100 µM (inactive) | > 100 µM (inactive) | > 100 µM (inactive) | > 100 µM (inactive) | > 100 µM (inactive) | > 100 µM (inactive) | > 100 µM (inactive) | > 100 µM (inactive) | > 100 µM (inactive)
COC(=O)[C@]1(C)CCC[C@]2(C)[C@H]3CC[C@]4(C(C)C)OO[C@@H](O4)[C@]34O[C@@H]4C[C@H]21 | 1.64 µM (inactive) | 0.641 µM (active) | 16.3 µM (inactive) | 1.81 µM (inactive) | 1.76 µM (inactive) | 1.21 µM (inactive) | 1.69 µM (inactive) | 2.24 µM (inactive) | 2.86 µM (inactive) | 0.238 µM (active) | 1.82 µM (inactive) | 3.02 µM (inactive) | 0.384 µM (active) | 4.81 µM (inactive) | 1.97 µM (inactive) | 1.6 µM (inactive) | 0.5 µM (active) | 10.8 µM (inactive) | 3.1 µM (inactive)
CO[C@@H](c1ccccc1)[C@H](O)[C@@](O)(c1ccccc1)P(=O)(OC)OC | > 100 µM (inactive) | > 100 µM (inactive) | > 100 µM (inactive) | > 100 µM (inactive) | > 100 µM (inactive) | > 100 µM (inactive) | > 100 µM (inactive) | > 100 µM (inactive) | 28.4 µM (inactive) | > 100 µM (inactive) | > 100 µM (inactive) | > 100 µM (inactive) | 34.7 µM (inactive) | > 100 µM (inactive) | 29.8 µM (inactive) | > 100 µM (inactive) | > 100 µM (inactive) | > 100 µM (inactive) | > 100 µM (inactive)
Cc1cc(C)n(-c2nc3ccccc3c(=O)[nH]2)n1 | 5.89 µM (inactive) | 3.77 µM (inactive) | 6.82 µM (inactive) | 2.95 µM (inactive) | 11 µM (inactive) | 1.6 µM (inactive) | 2.64 µM (inactive) | 4.1 µM (inactive) | 5.94 µM (inactive) | 0.906 µM (active) | 2.74 µM (inactive) | 4.34 µM (inactive) | 3.02 µM (inactive) | 18.8 µM (inactive) | 21.7 µM (inactive) | 2.24 µM (inactive) | 0.356 µM (active) | 11.9 µM (inactive) | 3.28 µM (inactive)
CC(C)C1CC(CO)(CNc2nc(N)nc(Cl)c2/C=N\O)C1 (centres undefined) | 15.6 µM (inactive) | 9.27 µM (inactive) | 12.8 µM (inactive) | 1.76 µM (inactive) | 1.25 µM (inactive) | 10.3 µM (inactive) | 0.71 µM (active) | 22.4 µM (inactive) | 2.03 µM (inactive) | 0.507 µM (active) | 4.34 µM (inactive) | 23.2 µM (inactive) | 11.9 µM (inactive) | 11.7 µM (inactive) | 12.5 µM (inactive) | 18.2 µM (inactive) | 13.6 µM (inactive) | 20.1 µM (inactive) | 22.5 µM (inactive)
CC(C)(C)OC(=O)/C=C/[C@@H](CCC(=O)/C=C/[C@H](/C=C\CCCC(=O)O)NC1(c2ccccc2)c2ccccc2-c2ccccc21)O[Si](C)(C)C(C)(C)C | 16.6 µM (inactive) | 15.2 µM (inactive) | 25.8 µM (inactive) | 14.3 µM (inactive) | 12.6 µM (inactive) | 9.16 µM (inactive) | 16.9 µM (inactive) | 17.1 µM (inactive) | 18.1 µM (inactive) | 19.4 µM (inactive) | 14.7 µM (inactive) | 15.8 µM (inactive) | 17.9 µM (inactive) | 16.5 µM (inactive) | 4.8 µM (inactive) | 16.1 µM (inactive) | 29.2 µM (inactive) | 20.6 µM (inactive) | 26.9 µM (inactive)
